Values of other authors in article PMC8670146 (Journal of Pharmaceutical and Biomedical Analysis, 2021).

Molecular target: SARS-CoV-2 3CLpro (Severe acute respiratory syndrome coronavirus 2, UniProt P0DTD1)
Conditions: previous study

SMILES	in vitro 3CLpro inhibition activity
O=c1cc(-c2ccccc2)oc2cc(O)c(O)c(O)c12 [compound 2, Baicalein]	showed in vitro 3CLpro inhibition activity
O=C(O)[C@H]1O[C@@H](Oc2cc3oc(-c4ccccc4)cc(=O)c3c(O)c2O)[C@H](O)[C@@H](O)[C@@H]1O [compound 1, Baicalin]	showed in vitro 3CLpro inhibition activity
